Laboratory results: BindingDB's records for doi:10.1016/j.bmcl.2006.12.084 (Gsk, 2007)

These compounds were tested against Free fatty acid receptor 1 (Homo sapiens, UniProt O14842) (assay: 96-Well Adherent Reporter Cell Assay). Conditions: 22 °C.
Description: The reporter assay for the stable hGPR40-Gal4-Elk1/5xGal4-luc+-expressing CHO cells was first carried out in the serum-free medium in the presence of test ligand for 5h. The medium was then removed and replaced with 1:1 mixture of LucPlusTM (PerkinElmer Life Sciences) and Dulbecco phosphate buffered saline containing 1 mM CaCl2 and 1 mM MgCl2. Plates were incubated in the dark at room temperature for 10 min before luciferase activity was determined using a TopCountTM microplate scintillation counter (PerkinElmer Life Sciences) at a count time of 3 s/well.

Chain of Free fatty acid receptor 1 (O14842 whole entry, the tested form may be a part): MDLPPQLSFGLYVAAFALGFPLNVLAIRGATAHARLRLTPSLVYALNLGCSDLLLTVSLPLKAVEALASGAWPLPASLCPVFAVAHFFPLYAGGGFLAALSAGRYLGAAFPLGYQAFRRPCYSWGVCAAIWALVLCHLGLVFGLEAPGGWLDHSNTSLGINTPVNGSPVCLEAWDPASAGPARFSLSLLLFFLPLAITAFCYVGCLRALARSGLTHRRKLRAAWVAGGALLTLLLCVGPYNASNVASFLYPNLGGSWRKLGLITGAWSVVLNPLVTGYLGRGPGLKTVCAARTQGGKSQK

Structure (SMILES)	EC50 [µM]
O=C(O)CCc1ccc(NCc2ccc(C(F)(F)F)cc2)cc1 [3-[4-({[4-(trifluoromethyl)phenyl]methyl}amino)phenyl]propanoic acid]	2
CC(C(=O)O)c1ccc(NCc2ccc(-c3ccccc3)cc2)cc1 (configuration not stated) [2-(4-{[(4-phenylphenyl)methyl]amino}phenyl)propanoic acid]	> 31.6
O=C(O)CCc1ccc(NCc2cccnc2)cc1 [3-{4-[(pyridin-3-ylmethyl)amino]phenyl}propanoic acid]	> 31.6
O=C(O)CCc1ccc(NCc2ccc(Cl)s2)cc1 [3-(4-{[(5-chlorothiophen-2-yl)methyl]amino}phenyl)propanoic acid]	2
CN(C)Cc1ccc(CNc2ccc(CCC(=O)O)cc2)cc1 [3-{4-[({4-[(dimethylamino)methyl]phenyl}methyl)amino]phenyl}propanoic acid]	> 31.6

Same assay, conditions: 25 °C

Structure (SMILES)	EC50 [µM]
N#Cc1ccc(CNc2ccc(CCC(=O)O)cc2)cc1 [3-(4-{[(4-cyanophenyl)methyl]amino}phenyl)propanoic acid]	> 31.6
O=C(O)CCc1ccc(NCc2ccc(O)cc2)cc1 [3-(4-{[(4-hydroxyphenyl)methyl]amino}phenyl)propanoic acid]	> 31.6
O=C(O)CCc1ccc(NCc2ccc(C(=O)O)cc2)cc1 [4-({[4-(2-carboxyethyl)phenyl]amino}methyl)benzoic acid]	> 31.6
O=C(O)CCc1ccc(NCc2ccc3c(c2)OCO3)cc1 [3-{4-[(2H-1,3-benzodioxol-5-ylmethyl)amino]phenyl}propanoic acid]	> 31.6
NC(=O)c1cccc(CNc2ccc(CCC(=O)O)cc2)c1 [3-(4-{[(3-carbamoylphenyl)methyl]amino}phenyl)propanoic acid]	> 31.6
O=C(O)CCc1ccc(NCc2ncc[nH]2)cc1 [3-{4-[(1H-imidazol-2-ylmethyl)amino]phenyl}propanoic acid]	> 31.6
CS(=O)(=O)Nc1cccc(CNc2ccc(CCC(=O)O)cc2)c1 [3-(4-{[(3-methanesulfonamidophenyl)methyl]amino}phenyl)propanoic acid]	> 31.6
